These results are taken from US20220089592A1, “IMIDAZO[1,2-A]PYRIDINYL DERIVATIVES AS IRAK4 INHIBITORS” (priority 2019, published 2022).

Each structure is given as a SMILES string.

The target in the first assay is T1, IRAK4 (Homo sapiens, UniProt Q9NWZ3).
T1 sequence (Q9NWZ3 1-460): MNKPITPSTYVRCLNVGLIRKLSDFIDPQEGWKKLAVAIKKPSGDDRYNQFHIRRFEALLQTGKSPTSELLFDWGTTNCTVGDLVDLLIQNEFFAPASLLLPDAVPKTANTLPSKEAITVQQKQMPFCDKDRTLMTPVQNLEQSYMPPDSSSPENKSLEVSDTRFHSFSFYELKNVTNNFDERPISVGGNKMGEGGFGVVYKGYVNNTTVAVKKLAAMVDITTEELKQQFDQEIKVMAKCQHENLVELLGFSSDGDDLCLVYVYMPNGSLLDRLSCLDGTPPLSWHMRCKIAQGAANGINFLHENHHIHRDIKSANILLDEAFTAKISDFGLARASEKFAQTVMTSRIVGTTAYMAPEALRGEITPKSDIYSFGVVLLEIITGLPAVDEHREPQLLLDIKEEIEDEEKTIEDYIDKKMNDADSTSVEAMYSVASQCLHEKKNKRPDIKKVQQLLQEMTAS
Nature of the assay: 2-hour 10 μM ATP Biochemical Assay (MesoScale Detection format; IRAK4 phosphorylation of biotin labeled IRAK1 activation loop peptide). Particulars: IRAK4 MSD BIOCHEMICAL (10 μM ATP) IC50 (μM), 1 nM IRAK4, 2 hours. On the procedure:
The 2-hour 10 μM ATP Biochemical Assay employs a MesoScale Detection (MSD) format.
The activity is quenched with 11 μl of 70 mM EDTA, pH 8.
To detect the phosphorylated biotinylated peptide substrate, 30 μl of the quenched reaction mixture is added to equivalent wells of a 384 well streptavidin coated MesoScale plate (Meso Scale Discovery #L21SA-1). After a 1 hour incubation of the plate for 1 hour at room temperature with gentle mixing, the plate wells are washed 3 times with 50 mM Tris, pH 7.5, 150 mM NaCl, 0.02% Tween-20.
A 25 μl volume of 1:500 anti-P-Threonine Rabbit polyclonal Antibody plus 1:500 Goat-anti-Rabbit Sulfo Tag Antibody (Meso Scale Discovery R32AB-1) in 50 mM Tris, pH 7.5, 150 mM NaCl, 0.02% Tween-20 plus 2% BSA is then added to each well. After a 1-hour incubation of the plate for 1 hour at room temperature with gentle mixing, the plate wells are washed, 3 times with 50 mM Tris, pH 7.5, 150 mM NaCl, 0.02% Tween-20. A 40 μl volume of 2×MSD Read Buffer (Meso Scale Discovery R92TC-1) is added to each well, and the plate is read immediately in an MSD Plate Reader (Meso Scale Discovery).
The molecule `CCOc1cc2nc(C(C)C3CCOC3)cn2cc1NC(=O)c1cccc(C(F)(F)F)n1` (mixture of isomers) [Example 137, N-(7-ethoxy-2-(1-(tetrahydrofuran-3-yl)ethyl)imidazo[1,2-a]pyridin-6-yl)-6-(trifluoromethyl)picolinamide] showed an IC50 of 0.001 µM. That is a single-digit nanomolar value. Same read-out and setting: the figure for `CCOc1cc2nc(C(F)C3CCOC3)cn2cc1NC(=O)c1cccc(C(F)(F)F)n1` (mixture of isomers) [Example 142, N-(7-ethoxy-2-(fluoro(tetrahydrofuran-3-yl)methyl)imidazo[1,2-a]pyridin-6-yl)-6-(trifluoromethyl)picolinamide] is 0.001 µM. Same read-out and setting: as for `CCOc1cc2nc(C3CC34CCOC4)cn2cc1NC(=O)c1cccc(C(F)F)n1` (mixture of isomers) [Example 171, 6-(difluoromethyl)-N-(7-ethoxy-2-(5-oxaspiro[2.4]heptan-1-yl)imidazo[1,2-a]pyridin-6-yl)picolinamide], the figure is 0.002 µM; as for `O=C(Nc1cn2cc(C3CCOCC3)nc2cc1OC1CCCC1)c1cccc(C(F)F)n1` [Example 175, N-(7-(cyclopentyloxy)-2-(tetrahydro-2H-pyran-4-yl)imidazo[1,2-a]pyridin-6-yl)-6-(difluoromethyl)picolinamide], 0.001 µM. On to `O=C(Nc1cn2cc(C3CCOCC3)nc2cc1OC1CCC1)c1cccc(C(F)F)n1` [Example 176, N-(7-cyclobutoxy-2-(tetrahydro-2H-pyran-4-yl)imidazo[1,2-a]pyridin-6-yl)-6-(difluoromethyl)picolinamide], for which the IC50 is 0.001 µM. The same measure, in the same setting: the figure for `CCOc1cc2nc(C3CCOCC3)cn2cc1NC(=O)c1ccn(C(C)(C)C)n1` [Example 207, 1-(tert-butyl)-N-(7-ethoxy-2-(tetrahydro-2H-pyran-4-yl)imidazo[1,2-a]pyridin-6-yl)-1H-pyrazole-3-carboxamide] is 0.021 µM; for `CCOc1cc2nc(C3CCOCC3)cn2cc1NC(=O)c1ccccc1F` [Example 212, N-(7-ethoxy-2-(tetrahydro-2H-pyran-4-yl)imidazo[1,2-a]pyridin-6-yl)-2-fluorobenzamide] it is 0.022 µM.

With `CCOc1cc2nc(C3CCOCC3)cn2cc1NC(=O)c1ccnc(OC)n1` [Example 226, N-(7-ethoxy-2-(tetrahydro-2H-pyran-4-yl)imidazo[1,2-a]pyridin-6-yl)-2-methoxypyrimidine-4-carboxamide], the IC50 came out at 0.035 µM. Still for that read-out and setting: as for `CCOc1cc2nc(C3CCOCC3)cn2cc1NC(=O)c1cccc(C)c1` [Example 229, N-(7-ethoxy-2-(tetrahydro-2H-pyran-4-yl)imidazo[1,2-a]pyridin-6-yl)-3-methylbenzamide], the figure is 0.025 µM; as for `CCOc1cc2nc(C(C)(C)C#N)cn2cc1NC(=O)c1cccc(C(F)CF)n1` (centres unmarked) [Example 245, N-(2-(2-cyanopropan-2-yl)-7-ethoxyimidazo[1,2-a]pyridin-6-yl)-6-(1,2-difluoroethyl)picolinamide], 0.002 µM.

For the molecule `CCOc1cc2nc(C3CN(CC(F)F)C3)cn2cc1NC(=O)c1ccn(CC(F)F)n1` [Example 291, 1-(2,2-difluoroethyl)-N-(2-(1-(2,2-difluoroethyl)azetidin-3-yl)-7-ethoxyimidazo[1,2-a]pyridin-6-yl)-1H-pyrazole-3-carboxamide], half-maximal inhibition (IC50) was put at 0.003 µM.

As to `O=C(Nc1cn2cc(C3CCOCC3)nc2cc1F)c1cccc(C(F)F)n1` [Example 293, 6-(difluoromethyl)-N-(7-fluoro-2-(tetrahydro-2H-pyran-4-yl)imidazo[1,2-a]pyridin-6-yl)picolinamide], 0.031 µM corresponded to half-maximal inhibition (IC50). This IC50 is about 10-fold higher than that of the molecule before. `COc1cc(NC(=O)c2csc(C)n2)cn2cc(C3CCOCC3)nc12` [Example 305, N-(8-methoxy-2-(tetrahydro-2H-pyran-4-yl)imidazo[1,2-a]pyridin-6-yl)-2-methylthiazole-4-carboxamide]: inhibition was half-maximal at 0.026 µM (IC50). On the same count and under the same terms, as for `CCOc1cc2nc(C3CCOCC3)cn2cc1NC(=O)c1cccc(OCC(F)(F)F)n1` [Example 363, N-(7-ethoxy-2-(tetrahydro-2H-pyran-4-yl)imidazo[1,2-a]pyridin-6-yl)-6-(2,2,2-trifluoroethoxy)picolinamide], the figure is 0.029 µM; as for `Cc1cc(NC(=O)c2cccc(C(F)F)n2)cn2cc(C3CCOCC3)nc12` [Example 410, 6-(difluoromethyl)-N-(8-methyl-2-(tetrahydro-2H-pyran-4-yl)imidazo[1,2-a]pyridin-6-yl)picolinamide 2,2,2-trifluoroacetate], 0.011 µM; as for `COc1cc(NC(=O)c2cccc(C(F)F)n2)cn2cc(CC3CCOC3)nc12` (centres unmarked) [Example 411, 6-(difluoromethyl)-N-(8-methoxy-2-((tetrahydrofuran-3-yl)methyl)imidazo[1,2-a]pyridin-6-yl)picolinamide], 0.003 µM. On the same count and under the same terms, as for `COc1cc(NC(=O)c2ccn(C)n2)cn2cc(C3CCOCC3)nc12` [Example 412, N-(8-methoxy-2-(tetrahydro-2H-pyran-4-yl)imidazo[1,2-a]pyridin-6-yl)-1-methyl-1H-pyrazole-3-carboxamide 2,2,2-trifluoroacetate], the figure is 0.037 µM; as for `COc1nc(NC(=O)c2cccc(C(F)F)n2)cn2cc(C3CCOCC3)nc12` [Example 450, 6-(difluoromethyl)-N-(8-methoxy-2-(tetrahydro-2H-pyran-4-yl)imidazo[1,2-a]pyrazin-6-yl)picolinamide], 0.003 µM.

`COc1nc(NC(=O)c2ccn(CC(F)F)n2)cn2cc(C3CCOCC3)nc12` [Example 452, 1-(2,2-difluoroethyl)-N-(8-methoxy-2-(tetrahydro-2H-pyran-4-yl)imidazo[1,2-a]pyrazin-6-yl)-1H-pyrazole-3-carboxamide] had an IC50 of 0.031 µM. The molecule `COc1nc(NC(=O)c2cccc3c2OCC3)cn2cc(C3CCOCC3)nc12` [Example 453, N-(8-methoxy-2-(tetrahydro-2H-pyran-4-yl)imidazo[1,2-a]pyrazin-6-yl)-2,3-dihydrobenzofuran-7-carboxamide] displayed an IC50 of 0.005 µM. `COc1cc(NC(=O)c2cccc(C(F)F)n2)cn2cc(CC3CCOCC3)nc12` [Example 506, 6-(difluoromethyl)-N-(8-methoxy-2-((tetrahydro-2H-pyran-4-yl)methyl)imidazo[1,2-a]pyridin-6-yl)picolinamide]: half-maximal inhibition (IC50) required 0.004 µM. Same read-out and setting: as for `COc1cc(NC(=O)c2cccc(C(F)F)n2)cn2cc(C34COC(C)(C3)C4)nc12` [Example 508, 6-(difluoromethyl)-N-(8-methoxy-2-(1-methyl-2-oxabicyclo[2.1.1]hexan-4-yl)imidazo[1,2-a]pyridin-6-yl)picolinamide 2,2,2-trifluoroacetate], the figure is 0.002 µM; as for `COc1cc(NC(=O)c2cccc(C(F)F)n2)cn2cc(C3CC4CCC(C3)O4)nc12` (centres unmarked) [Example 509, N-(2-(8-oxabicyclo[3.2.1]octan-3-yl)-8-methoxyimidazo[1,2-a]pyridin-6-yl)-6-(difluoromethyl)picolinamide 2,2,2-trifluoroacetate], 0.002 µM. On the same count and under the same terms, the figure for `COc1cc(NC(=O)c2cccc(C(F)F)n2)cn2cc(C34CC(C#N)(C3)C4)nc12` [Example 511, N-(2-(3-cyanobicyclo[1.1.1]pentan-1-yl)-8-methoxyimidazo[1,2-a]pyridin-6-yl)-6-(difluoromethyl)picolinamide 2,2,2-trifluoroacetate] is 0.004 µM; for `COc1cc(NC(=O)c2cccc(C(F)F)n2)cn2cc(C34CC(C(F)F)(C3)C4)nc12` [Example 512, 6-(difluoromethyl)-N-(2-(3-(difluoromethyl)bicyclo[1.1.1]pentan-1-yl)-8-methoxyimidazo[1,2-a]pyridin-6-yl)picolinamide 2,2,2-trifluoroacetate] it is 0.004 µM; for `COc1cc(NC(=O)c2cccc(C(F)F)n2)cn2cc(C34COC(C3)C4)nc12` [Example 544, N-(2-(2-oxabicyclo[2.1.1]hexan-4-yl)-8-methoxyimidazo[1,2-a]pyridin-6-yl)-6-(difluoromethyl)picolinamide 2,2,2-trifluoroacetate] it is 0.011 µM.

The target of another assay is T1, IRAK4. The assay can be described thus: 2-hour 1 mM ATP IRAK4 Biochemical assay (as above, but with 100 pM IRAK4 and 1 mM ATP). The note with it: IRAK4 MSD BIOCHEMICAL (1 mM ATP) IC50 (μM), 100 pM IRAK4, 2 hours. The method, boiled down:
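Run with 100 pM IRAK4 and 1 mM ATP for 2 hours, quenched with EDTA pH 8. Phosphorylated biotinylated peptide captured on streptavidin MSD plates and detected with anti-phosphothreonine antibody plus Sulfo-Tag secondary by electrochemiluminescence.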
Regarding `CCOc1cc2nc(C(C)C3CCOC3)cn2cc1NC(=O)c1cccc(C(F)(F)F)n1` (mixture of isomers) [Example 137, N-(7-ethoxy-2-(1-(tetrahydrofuran-3-yl)ethyl)imidazo[1,2-a]pyridin-6-yl)-6-(trifluoromethyl)picolinamide], the IC50 was determined as 0.001 µM. On the same count and under the same terms, as for `CCOc1cc2nc(C(F)C3CCOC3)cn2cc1NC(=O)c1cccc(C(F)(F)F)n1` (mixture of isomers) [Example 142, N-(7-ethoxy-2-(fluoro(tetrahydrofuran-3-yl)methyl)imidazo[1,2-a]pyridin-6-yl)-6-(trifluoromethyl)picolinamide], the figure is 0.001 µM. Still for that read-out and setting: as for `CCOc1cc2nc(C3CC34CCOC4)cn2cc1NC(=O)c1cccc(C(F)F)n1` (mixture of isomers) [Example 171, 6-(difluoromethyl)-N-(7-ethoxy-2-(5-oxaspiro[2.4]heptan-1-yl)imidazo[1,2-a]pyridin-6-yl)picolinamide], the figure is 0.004 µM.
